# Measured values from patent publication US8563259B2, “Complement-mediated thrombophilic assay” (The Trustees of the University of Pennsylvania, priority 2007, dated 2013).
# Tested on: TF expression induced by activated complement in normal primary cells (monocytes or neutrophils)
# Test: modified PT (mPT) assay with supernatant of healthy primary cells stimulated with patient serum, with or without complement inhibitor
# Format: cell-based, human
# Description: To test serum for complement activating activity, serum was obtained from patients diagnosed with various disorders. Serum was obtained from patients diagnosed with: antiphospholipid syndrome (APS; n=26), systemic lupus erythymatosus (SLE; n=9), rheumatoid arthritis (n=12), sepsis (n=6), metastatic cancer (n=8) and inherited hypercoagulation (n=9). Serum was also obtained from healthy individuals (n=22).
# Freshly obtained primary cells (monocytes or neutrophils) obtained from healthy donors were suspended in phosphate buffered saline (PBS). In parallel, the cells were stimulated with patient serum and with patient serum that was pre-incubated for 30 minutes with either 15 μM Compstatin or 10 μM C5aR antagonist to inhibit complement. The cells were incubated with serum for approximately 2 to 2.5 hours at 37° C. Subsequently, supernatant from the serum-incubated cells was obtained by centrifugation at 1000×g for 10 minutes. The supernatant was then assessed in a modified PT assay.
# In a standard PT assay, 100 μl patient plasma is mixed with 200 μl commercial thromboplastin (International Sensitivity Index (ISI) 1.0 or ISI 1.9), and time of clotting is assessed by measuring in seconds the time required for clot formation after thromboplastin is added. In the modified PT (mPT) assay, 100 μl platelet-poor plasma (PPP) from a healthy subject was used and about 120-130 μl of the commercial thromboplastin (also called tissue factor) was replaced with PBS (the total volume of clotting reaction remains stable, at 300 μl) in order to obtain a technical prolongation of the clotting time from about 12-13 seconds to about 32-37 seconds. To test the effect of the test serum on TF expression of healthy primary blood cells, the about 120-130 μl PBS was replaced with about 120-130 μl of supernatant from the primary cells stimulated with test serum. All mPT assays were performed independently by two experienced physicians.
# When complement is activated in the test serum, the use of 120-130 μl supernatant in the mPT test reduces the clotting time from about 32-37 sec to about 18-20 seconds. This reduction in clotting time occurs because TF expression is induced in the normal primary cells by the activated complement. When the activated complement in the test serum has been inhibited (e.g., with Compstatin or C5aR antagonist), TF expression is not induced by activated complement in normal primary cells and the mPT remains unchanged (about 32 to about 37 seconds).
smiles,measurement,setting,value
"CC[C@H](C)[C@H](N)C(=O)N[C@H]1CSSC[C@@H](C(=O)N[C@H](C(N)=O)[C@@H](C)O)NC(=O)[C@H](CCCN=C(N)N)NC(=O)[C@H](Cc2cnc[nH]2)NC(=O)[C@H](Cc2cnc[nH]2)NC(=O)CNC(=O)[C@H](Cc2c[nH]c3ccccc23)NC(=O)[C@H](CC(=O)O)NC(=O)[C@H](CCC(N)=O)NC(=O)[C@H](C(C)C)NC(=O)[C@H](C(C)C)NC1=O [Compstatin, Ile-Cys-Val-Val-Gln-Asp-Trp-Gly-His-His-Arg-Cys-Thr]",sensitivity of the mPT test after Compstatin-mediated inhibition of complement (pro-coagulant activity completely abolished),APS and SLE patients,100%
same,Clotting time,"APS serum (n = 26), serum pre-incubated 30 minutes with 15 μM Compstatin or 10 μM C5aR antagonist",31.11 ± 0.26 s
same,Clotting time,"Acute sepsis serum (n = 6), serum pre-incubated 30 minutes with 15 μM Compstatin or 10 μM C5aR antagonist",28.97 ± 0.80 s
same,Clotting time,"Healthy donor serum (n = 22), serum pre-incubated 30 minutes with 15 μM Compstatin or 10 μM C5aR antagonist",31.19 ± 0.16 s
same,Clotting time,"Inherited hypercoagulation serum (n = 9), serum pre-incubated 30 minutes with 15 μM Compstatin",29.01 ± 1.08 s
same,Clotting time,"Metastatic cancer serum (n = 8), serum pre-incubated 30 minutes with 15 μM Compstatin",26.07 ± 1.21 s
same,Clotting time,"Rheumatoid arthritis serum (n = 12), serum pre-incubated 30 minutes with 15 μM Compstatin",30.26 ± 0.81 s
same,Clotting time,"SLE serum (n = 9), serum pre-incubated 30 minutes with 15 μM Compstatin or 10 μM C5aR antagonist",31.26 ± 0.17 s
same,"difference in clotting time before and after inhibition in acute sepsis, as share of the time difference for either APS or SLE serum",acute sepsis serum versus APS or SLE serum,about 30%
same,effect of treatment on clotting time,sera from septic patients,partial inhibition
